Assay results: PMC11288027, “Exploring novel microbial metabolites and drugs for inhibiting Clostridioides difficile” (mSphere, 2024)
In brackets after ≈: the same amount, converted by molar mass. Several values for one entry are separate records, joined by “and”; a condition that tells them apart may be missing. Equal values may be shown once. Where a name gives a salt, the structure may show the parent alone. Read-outs that look alike come from different tables or passages of the source.

Legend:
L. brevis = assay: MIC against human gut microbiota; format: cell-based, Lactobacillus brevis; conditions: Levilactobacillus brevis
B. dorei = assay: MIC against human gut microbiota; format: cell-based, Bacteroides dorei; conditions: Phocaeicola dorei, read-out: minimum inhibitory concentration (MIC)
Bif. angulatum = assay: MIC against human gut microbiota; format: cell-based, Bifidobacterium angulatum; conditions: Bifidobacterium angulatum, read-out: minimum inhibitory concentration (MIC)
L. casei = assay: MIC against human gut microbiota; format: cell-based; conditions: Lacticaseibacillus casei
[1] = system: C. difficile ATCC BAA-1870; assay: Time-kill assay at 5 × MIC; conditions: C. difficile ATCC BAA-1870, ~10^6 CFU/mL, up to 24 h
E. fecalis = assay: MIC against human gut microbiota; format: cell-based, Enterococcus faecalis; conditions: Enterococcus faecalis, read-out: minimum inhibitory concentration (MIC)
Bif. adolescentis = assay: MIC against human gut microbiota; format: cell-based, Bifidobacterium adolescentis; conditions: Bifidobacterium adolescentis, read-out: minimum inhibitory concentration (MIC)
E. faecium = assay: MIC against human gut microbiota; format: cell-based, Enterococcus faecium; conditions: Enterococcus faecium, read-out: minimum inhibitory concentration (MIC)
L. rhamanosus = assay: MIC against human gut microbiota; format: cell-based, Lactobacillus rhamnoosus; conditions: Lactobacillus
Bif. breve = assay: MIC against human gut microbiota; format: cell-based, Bifidobacterium breve; conditions: Bifidobacterium breve
B. fragilis = assay: MIC against human gut microbiota; format: cell-based, Bacteroides fragilis; conditions: for MIC: Bacteroides fragilis, read-out: minimum inhibitory concentration (MIC)
[2] = system: embryo development in mice; set-up: method as in PMID 19079959; conditions: cited from earlier work
[3] = system: C. difficile clinical isolates; assay: MIC against a panel of 20 C. difficile clinical isolates (broth microdilution); format: cell-based, Clostridioides difficile; conditions: Clostridioides difficile
Bif. longum = assay: MIC against human gut microbiota; format: cell-based, Bifidobacterium longum; conditions: Bifidobacterium longum
[4] = system: C. difficile ATCC BAA-1870; assay: MIC of active hits by broth microdilution; conditions: C. difficile ATCC BAA-1870, 48 h anaerobic; for MIC: Clostridioides difficile, ATCCBAA1870, 48 h
mice = conditions: administered orally; cited from earlier work
S. aureus = system: S. aureus; set-up: method as in PMID 26414088; conditions: cited from earlier work
[5] = system: Staphylococcus epidermidis; set-up: method as in PMID 26414088; conditions: cited from earlier work
Acinetobacter baumannii = system: Acinetobacter baumannii; set-up: method as in PMID 26414088; conditions: cited from earlier work
[6] = B. fragilis HM- 718, BHIS broth, anaerobic

C[C@H](CCC(=O)O)C[C@H](C)C[C@H](C)C(=O)/C=C(\O)[C@H](C)C[C@H](C)C/C=C/[C@@H](C)[C@@H](O)[C@@H](C)[C@@H](O)C[C@@H]1CC[C@@](C)([C@H]2CC[C@@](C)([C@@H](C)O)O2)O1 [Ionomycin (calcium salt)]
MIC (L. brevis; ATCC14864, read-out: minimum inhibitory concentration (MIC)): ≥ 256 µg/mL | MIC (B. dorei): > 256 µg/mL | MIC (Bif. angulatum): 64 µg/mL | MIC (L. casei; ATCC334, read-out: minimum inhibitory concentration (MIC)): 32 µg/mL | time to bactericidal effect [1]: 8 h | time to eliminate / clear C. difficile [1]: 12 h | MIC (E. fecalis): 16 µg/mL | MIC (Bif. adolescentis): 16 µg/mL | MIC (E. faecium): 32 µg/mL | MIC (L. rhamanosus; ATCC53103, read-out: minimum inhibitory concentration (MIC)): > 256 µg/mL | MIC (Bif. breve; ATCC15700, read-out: minimum inhibitory concentration (MIC)): > 256 µg/mL | minimum inhibitory concentration (MIC) (B. fragilis; [6]): >256 µg/mL | MIC (B. fragilis): > 256 µg/mL | toxicity on embryo development [2]: no toxicity | MIC50 [3]: 1 µg/mL | MIC90 [3]: 2 µg/mL | MIC50 ([3]; 48 h): 1 µg/mL | MIC ([3]; ATCC630, read-out: minimum inhibitory concentration (MIC)): 0.5 µg/mL | MIC ([3]; ATCC43255, read-out: minimum inhibitory concentration (MIC)): 1 µg/mL | MIC ([3]; ATCCBAA1870, read-out: minimum inhibitory concentration (MIC)): 1 µg/mL | MIC (Bif. longum; read-out: minimum inhibitory concentration (MIC), Bif. longum HM- 845, BHIS broth, anaerobic): > 256 µg/mL | MIC (Bif. longum; read-out: minimum inhibitory concentration (MIC), Bif. longum HM- 846, BHIS broth, anaerobic): 64 µg/mL | MIC (Bif. longum; read-out: minimum inhibitory concentration (MIC), Bif. longum HM- 847, BHIS broth, anaerobic): 128 µg/mL | MIC (Bif. longum; read-out: minimum inhibitory concentration (MIC), Bif. longum HM- 848, BHIS broth, anaerobic): 256 µg/mL | MIC (μM) [4]: 4 µM | MIC [4]: 2.99 µg/mL

Oc1c(Br)cc(Br)c2cccnc12 [Broxyquinoline]
LD50 (mice): 7400 mg/kg | MIC (L. brevis; ATCC14864, L. brevis ATCC-14864, MRS broth, 5% CO2, read-out: minimum inhibitory concentration (MIC)): 64 µg/mL (≈ 211 µM) | MIC (S. aureus): 4 µg/mL (≈ 13.2 µM) | MIC (B. dorei; B. dorei HM- 719, BHIS broth, anaerobic): 8 µg/mL (≈ 26.4 µM) | MIC (Bif. angulatum; Bif. angulatum HM- 1189, BHIS broth, anaerobic): 8 µg/mL (≈ 26.4 µM) | MIC (L. casei; ATCC334, L. casei ATCC 334, MRS broth, 5% CO2, read-out: minimum inhibitory concentration (MIC)): 32 µg/mL (≈ 106 µM) | time to eliminate / clear C. difficile [1]: 6 h | MIC (E. fecalis; E. fecalis HM-970, TSB, aerobic): 16 µg/mL (≈ 52.8 µM) | MIC (Bif. adolescentis; Bif. adolescentis HM- 633, BHIS broth, anaerobic): 64 µg/mL (≈ 211 µM) | MIC [5]: 12.5 µM and 4 µg/mL | MIC (E. faecium; E. faecium HM-202, TSB, aerobic): 32 µg/mL (≈ 106 µM) | MIC (L. rhamanosus; ATCC53103, L. rhamanosus ATCC-53103, MRS broth, 5% CO2, read-out: minimum inhibitory concentration (MIC)): > 256 µg/mL | MIC (Bif. breve; ATCC15700, Bif. breve ATCC 15700, BHIS broth, anaerobic, read-out: minimum inhibitory concentration (MIC)): > 256 µg/mL | MIC (B. fragilis; B. fragilis HM- 709, BHIS broth, anaerobic): 8 µg/mL (≈ 26.4 µM) | MIC (B. fragilis; [6]): 16 µg/mL (≈ 52.8 µM) | MIC50 ([3]; 48 h, concentration that inhibited 50% of the 20 C. difficile clinical isolates, read-out: MIC50): 0.125 µg/mL (≈ 0.413 µM) | MIC ([3]; ATCC630, C. difficile ATCC 630, read-out: minimum inhibitory concentration (MIC)): 1 µg/mL (≈ 3.3 µM) | MIC ([3]; ATCC43255, C. difficile ATCC 43255, read-out: minimum inhibitory concentration (MIC)): 0.25 µg/mL (≈ 0.825 µM) | MIC ([3]; ATCCBAA1870, C. difficile ATCC BAA-1870 (Ribotype-027), purchased compounds, panel test, read-out: minimum inhibitory concentration (MIC)): 0.125 µg/mL (≈ 0.413 µM) | MIC ([3]; C. difficile CD-1 (Ribotype-027), read-out: minimum inhibitory concentration (MIC)): 0.25 µg/mL (≈ 0.825 µM) | MIC ([3]; C. difficile CD-6 (Ribotype-027), read-out: minimum inhibitory concentration (MIC)): 0.25 µg/mL (≈ 0.825 µM) | MIC ([3]; C. difficile CD-10(Ribotype-027), read-out: minimum inhibitory concentration (MIC)): 0.125 µg/mL (≈ 0.413 µM) | MIC ([3]; C. difficile CD-12, read-out: minimum inhibitory concentration (MIC)): 0.125 µg/mL (≈ 0.413 µM) | MIC ([3]; C. difficile CD-13, read-out: minimum inhibitory concentration (MIC)): 0.03 µg/mL (≈ 0.099 µM) | MIC ([3]; C. difficile CD-15, read-out: minimum inhibitory concentration (MIC)): 0.25 µg/mL (≈ 0.825 µM) | MIC ([3]; C. difficile CD-22, read-out: minimum inhibitory concentration (MIC)): 0.125 µg/mL (≈ 0.413 µM) | MIC ([3]; C. difficile CD-23, read-out: minimum inhibitory concentration (MIC)): 0.125 µg/mL (≈ 0.413 µM) | MIC ([3]; C. difficile CD-24, read-out: minimum inhibitory concentration (MIC)): 0.015 µg/mL (≈ 0.0495 µM) | MIC ([3]; C. difficile CD-26 (Ribotype-027), read-out: minimum inhibitory concentration (MIC)): 0.125 µg/mL (≈ 0.413 µM) | MIC ([3]; C. difficile CD-28, read-out: minimum inhibitory concentration (MIC)): 0.06 µg/mL (≈ 0.198 µM) | MIC ([3]; C. difficile CD-29 (Ribotype-027), read-out: minimum inhibitory concentration (MIC)): 0.06 µg/mL (≈ 0.198 µM) | MIC ([3]; C. difficile CD-30, read-out: minimum inhibitory concentration (MIC)): 0.25 µg/mL (≈ 0.825 µM) | MIC ([3]; C. difficile NR-49302, read-out: minimum inhibitory concentration (MIC)): 0.06 µg/mL (≈ 0.198 µM) | MIC ([3]; C. difficile NR-49304, read-out: minimum inhibitory concentration (MIC)): 0.03 µg/mL (≈ 0.099 µM) | MIC ([3]; C. difficile NR-49308, read-out: minimum inhibitory concentration (MIC)): 0.06 µg/mL (≈ 0.198 µM) | MIC ([3]; C. difficile NR-49319, read-out: minimum inhibitory concentration (MIC)): 0.25 µg/mL (≈ 0.825 µM) | MIC50 ([3]; concentration that inhibited 50% of the 20 C. difficile clinical isolates, read-out: MIC50): 0.125 µg/mL (≈ 0.413 µM) | MIC90 ([3]; concentration that inhibited 90% of the 20 C. difficile clinical isolates, read-out: MIC90): 0.25 µg/mL (≈ 0.825 µM) | MIC (Bif. longum; Bif. longum HM- 845, BHIS broth, anaerobic, read-out: minimum inhibitory concentration (MIC)): > 256 µg/mL | MIC (Bif. longum; Bif. longum HM- 846, BHIS broth, anaerobic, read-out: minimum inhibitory concentration (MIC)): 128 µg/mL (≈ 423 µM) | MIC (Bif. longum; Bif. longum HM- 847, BHIS broth, anaerobic, read-out: minimum inhibitory concentration (MIC)): 32 µg/mL (≈ 106 µM) | MIC (Bif. longum; Bif. longum HM- 848, BHIS broth, anaerobic, read-out: minimum inhibitory concentration (MIC)): 64 µg/mL (≈ 211 µM) | MIC (μM) [4]: 4 µM | MIC [4]: 1.21 µg/mL | MIC (Acinetobacter baumannii): 12.5 µM and 4 µg/mL
